For 34 compounds, IC50 results are on record in patent US8278452B2, “Heterocyclic compounds and compositions as c-kit and PDGFR kinase inhibitors” (IRM LLC, priority 2008, dated 2012).

Each structure is given as a SMILES string. pIC50: −log10 of the molar value.

The test system of the test is Mo7e cells which endogenously express c-kit. The experiment in a line: Mo7e assay: inhibition of SCF dependent proliferation (MTT). The test is classed as cell-based. As to conditions: Table 1; SCF stimulated Mo7e cells, 48 hours, MTT. The method, boiled down:
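Mo7e cells stimulated with human recombinant SCF and exposed to two-fold serial compound dilutions from a top concentration of 10 μM. After 48 h at 37 °C, viability measured by MTT colorimetric assay; IC50 derived.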
Regarding `Cc1cc2c(cn1)cc(-c1cc(Nc3noc(-c4csc(-c5cccnc5)n4)n3)ccc1C)c(=O)n2C` [Compound A44, 1,7-dimethyl-3-[2-methyl-5-({5-[2-(pyridin-3-yl)-1,3-thiazol-4-yl]-1,2,4-oxadiazol-3-yl}amino)phenyl]-1,2-dihydro-1,6-naphthyridin-2-one], the pIC50 (commonly the negative decadic logarithm of the IC50, by convention in mol/L) is 6.34.

Turning to `Cc1cc2c(cn1)cc(-c1cc(Nc3noc(-c4ccc(F)c(F)c4)n3)ccc1C)c(=O)n2C` [Compound A62, 3-(5-{[5-(3,4-difluorophenyl)-1,2,4-oxadiazol-3-yl]amino}-2-methylphenyl)-1,7-dimethyl-1,2-dihydro-1,6-naphthyridin-2-one], the pIC50 was 6.90.

In turn, `Cc1cc2c(cn1)cc(-c1cc(Nc3noc(-c4nccs4)n3)ccc1C)c(=O)n2C` [Compound A9, 1,7-dimethyl-3-(2-methyl-5-(5-(thiazol-2-yl)-1,2,4-oxadiazol-3-ylamino)phenyl)-1,6-naphthyridin-2(1H)-one] had a pIC50 of 6.69.

With `Cc1cc2c(cn1)cc(-c1cc(Nc3noc(-c4ccc(C(C)(F)F)cc4)n3)ccc1C)c(=O)n2C` [Compound A89, 3-[5-({5-[4-(1,1-difluoroethyl)phenyl]-1,2,4-oxadiazol-3-yl}amino)-2-methylphenyl]-1,7-dimethyl-1,2-dihydro-1,6-naphthyridin-2-one], the pIC50 is 6.66.

`Cc1cc2c(cn1)cc(-c1cc(Nc3cc(-c4ccc(F)cc4Cl)on3)ccc1C)c(=O)n2C` [Compound D8]: the pIC50 was 6.44.

The compound `Cc1cc2c(cn1)cc(-c1cc(Nc3noc(-c4cccc(C)n4)n3)ccc1C)c(=O)n2C` [Compound A47, 1,7-dimethyl-3-(2-methyl-5-{[5-(6-methylpyridin-2-yl)-1,2,4-oxadiazol-3-yl]amino}phenyl)-1,2-dihydro-1,6-naphthyridin-2-one] gave a pIC50 of 6.51.

In turn, `Cc1cc2c(cn1)cc(-c1cc(Nc3noc(CC(C)O)n3)ccc1C)c(=O)n2C` (stereo not shown) [Compound A55, 3-(5-{[5-(2-hydroxypropyl)-1,2,4-oxadiazol-3-yl]amino}-2-methylphenyl)-1,7-dimethyl-1,2-dihydro-1,6-naphthyridin-2-one] gave a negative-log IC50 (pIC50) of 6.53.

For `Cc1cc2c(cn1)cc(-c1cc(Nc3noc(-c4cccc(C#N)c4)n3)ccc1C)c(=O)n2C` [Compound A40, 3-(3-{[3-(1,7-dimethyl-2-oxo-1,2-dihydro-1,6-naphthyridin-3-yl)-4-methylphenyl]amino}-1,2,4-oxadiazol-5-yl)benzonitrile], the pIC50 is 6.52.

Consider `Cc1cc2c(cn1)cc(-c1cc(Nc3noc(C(C)(C)CO)n3)ccc1C)c(=O)n2C` [Compound A35, 3-(5-(5-(1-hydroxy-2-methylpropan-2-yl)-1,2,4-oxadiazol-3-ylamino)-2-methylphenyl)-1,7-dimethyl-1,6-naphthyridin-2(1H)-one], for which the pIC50 is 6.74.

Turning to `Cc1cc2c(cn1)cc(-c1cc(Nc3cc(-c4ccc(Br)cn4)on3)ccc1C)c(=O)n2C` [Compound D6], the pIC50 was 6.64.

`Cc1cc2c(cn1)cc(-c1cc(Nc3noc(-c4ccccc4)n3)ccc1C)c(=O)n2C` [Compound A7, 1,7-dimethyl-3-(2-methyl-5-(5-phenyl-1,2,4-oxadiazol-3-ylamino)phenyl)-1,6-naphthyridin-2(1H)-one]: the pIC50 was 7.12.

`Cc1cc2c(cn1)cc(-c1cc(Nc3noc(-c4ccc(C(F)(F)F)nc4)n3)ccc1C)c(=O)n2C` [Compound A4, 1,7-dimethyl-3-[2-methyl-5-({5-[6-(trifluoromethyl)pyridin-3-yl]-1,2,4-oxadiazol-3-yl}amino)phenyl]-1,2-dihydro-1,6-naphthyridin-2-one] gave a pIC50 of 6.33.

For `Cc1cc2c(cn1)cc(-c1cc(Nc3noc(C(C)C)n3)ccc1C)c(=O)n2C` [Compound A6, 3-(5-(5-isopropyl-1,2,4-oxadiazol-3-ylamino)-2-methylphenyl)-1,7-dimethyl-1,6-naphthyridin-2(1H)-one], the pIC50 is 7.47.

The compound `Cc1cc2c(cn1)cc(-c1cc(Nc3noc(C(C)(F)F)n3)ccc1C)c(=O)n2C` [Compound A54, 3-(5-(5-(1,1-difluoroethyl)-1,2,4-oxadiazol-3-ylamino)-2-methylphenyl)-1,7-dimethyl-1,6-naphthyridin-2(1H)-one] gave a pIC50 of 6.83.

Turning to `Cc1cc2c(cn1)cc(-c1cc(Nc3noc(-c4ccc(Cl)cn4)n3)ccc1C)c(=O)n2C` [Compound A26, 3-(5-{[5-(5-chloropyridin-2-yl)-1,2,4-oxadiazol-3-yl]amino}-2-methylphenyl)-1,7-dimethyl-1,2-dihydro-1,6-naphthyridin-2-one], the pIC50 is 7.57.

Compound `Cc1cc2c(cn1)cc(-c1cc(Nc3nnc(C4CC4)o3)ccc1C)c(=O)n2C` [Compound B9, 3-{5-[(5-cyclopropyl-1,3,4-oxadiazol-2-yl)amino]-2-methylphenyl}-1,7-dimethyl-1,2-dihydro-1,6-naphthyridin-2-one] gave a pIC50 of 6.48.

In the case of `COc1ccc(-c2nc(Nc3ccc(C)c(-c4cc5cnc(C)cc5n(C)c4=O)c3)no2)cn1` [Compound A87, 3-(5-{[5-(6-methoxypyridin-3-yl)-1,2,4-oxadiazol-3-yl]amino}-2-methylphenyl)-1,7-dimethyl-1,2-dihydro-1,6-naphthyridin-2-one], the pIC50 was 7.02.

In turn, `Cc1cc2c(cn1)cc(-c1cc(Nc3cc(-c4ccc(Cl)cc4Cl)on3)ccc1C)c(=O)n2C` [Compound D7] gave a pIC50 of 6.40.

`Cc1cc2c(cn1)cc(-c1cc(Nc3noc(-c4nccn4C)n3)ccc1C)c(=O)n2C` [Compound A22, 1,7-dimethyl-3-(2-methyl-5-{[5-(1-methyl-1H-imidazol-2-yl)-1,2,4-oxadiazol-3-yl]amino}phenyl)-1,2-dihydro-1,6-naphthyridin-2-one] had a pIC50 of 6.44. This pIC50 and that of the compound before are within 0.2 log units of each other.

Turning to `Cc1cc2c(cn1)cc(-c1cc(Nc3noc([C@H]4CCCCO4)n3)ccc1C)c(=O)n2C` [Compound A99, 1,7-dimethyl-3-[2-methyl-5-({5-[(2R)-oxan-2-yl]-1,2,4-oxadiazol-3-yl}amino)phenyl]-1,2-dihydro-1,6-naphthyridin-2-one], the negative logarithm of the IC50 (pIC50) is 7.00.

Consider `Cc1ccc(-c2nc(Nc3ccc(C)c(-c4cc5cnc(C)cc5n(C)c4=O)c3)no2)cn1` [Compound A51, 1,7-dimethyl-3-(2-methyl-5-(5-(6-methylpyridin-3-yl)-1,2,4-oxadiazol-3-ylamino)phenyl)-1,6-naphthyridin-2(1H)-one], for which the negative-log IC50 (pIC50) was 6.92.

Consider `COc1ccc(-c2nc(Nc3ccc(C)c(-c4cc5cnc(C)cc5n(C)c4=O)c3)no2)nc1` [Compound A103, 3-(5-{[5-(5-methoxypyridin-2-yl)-1,2,4-oxadiazol-3-yl]amino}-2-methylphenyl)-1,7-dimethyl-1,2-dihydro-1,6-naphthyridin-2-one], for which the pIC50 was 7.09. The pIC50 values of the last two compounds are within 0.2 log units of each other.

With `Cc1cc2c(cn1)cc(-c1cc(Nc3noc(-c4cccnc4)n3)ccc1C)c(=O)n2C` [Compound A10, 1,7-dimethyl-3-(2-methyl-5-{[5-(pyridin-3-yl)-1,2,4-oxadiazol-3-yl]amino}phenyl)-1,2-dihydro-1,6-naphthyridin-2-one], the pIC50 was 6.84.

Compound `Cc1cc2c(cn1)cc(-c1cc(Nc3cc(-c4ccccn4)on3)ccc1C)c(=O)n2C` [Compound D3] had a pIC50 of 6.80.

`Cc1cc2c(cn1)cc(-c1cc(Nc3nc(C(C)C)no3)ccc1C)c(=O)n2C` [Compound E3, 3-(5-(3-isopropyl-1,2,4-oxadiazol-5-ylamino)-2-methylphenyl)-1,7-dimethyl-1,6-naphthyridin-2(1H)-one] had a pIC50 of 6.74.

In the case of `Cc1cc2c(cn1)cc(-c1cc(Nc3noc(-c4cc5cc(Cl)ccc5[nH]4)n3)ccc1C)c(=O)n2C` [Compound A46, 3-(5-{[5-(5-chloro-1H-indol-2-yl)-1,2,4-oxadiazol-3-yl]amino}-2-methylphenyl)-1,7-dimethyl-1,2-dihydro-1,6-naphthyridin-2-one], the pIC50 was 6.47.

For `Cc1cc2c(cn1)cc(-c1cc(Nc3noc(C4CC(O)C4)n3)ccc1C)c(=O)n2C` (stereo not shown) [Compound A83, 3-(5-{[5-(3-hydroxycyclobutyl)-1,2,4-oxadiazol-3-yl]amino}-2-methylphenyl)-1,7-dimethyl-1,2-dihydro-1,6-naphthyridin-2-one], the pIC50 was 6.60. This pIC50 and that of the compound before are within 0.2 log units of each other.

Compound `Cc1cc2c(cn1)cc(-c1cc(Nc3noc(C(C)Oc4ccccc4)n3)ccc1C)c(=O)n2C` (stereo not shown) [Compound A96, 1,7-dimethyl-3-(2-methyl-5-{[5-(1-phenoxyethyl)-1,2,4-oxadiazol-3-yl]amino}phenyl)-1,2-dihydro-1,6-naphthyridin-2-one] showed a pIC50 of 6.38.

Compound `Cc1cc2c(cn1)cc(-c1cc(Nc3noc(-c4ccccc4Cl)n3)ccc1C)c(=O)n2C` [Compound A8, 3-(5-{[5-(2-chlorophenyl)-1,2,4-oxadiazol-3-yl]amino}-2-methylphenyl)-1,7-dimethyl-1,2-dihydro-1,6-naphthyridin-2-one] gave a pIC50 of 6.80.

On to `Cc1cc2c(cn1)cc(-c1cc(Nc3nnc(-c4ccc(Cl)cc4)o3)ccc1C)c(=O)n2C` [Compound B3, 3-(5-{[5-(4-chlorophenyl)-1,3,4-oxadiazol-2-yl]amino}-2-methylphenyl)-1,7-dimethyl-1,2-dihydro-1,6-naphthyridin-2-one], for which the pIC50 was 7.06.

`Cc1cc2c(cn1)cc(-c1cc(Nc3noc(-c4ccc(OC(F)(F)F)cc4)n3)ccc1C)c(=O)n2C` [Compound A41, 1,7-dimethyl-3-[2-methyl-5-({5-[4-(trifluoromethoxy)phenyl]-1,2,4-oxadiazol-3-yl}amino)phenyl]-1,2-dihydro-1,6-naphthyridin-2-one] showed a pIC50 of 7.28.

`Cc1cc2c(cn1)cc(-c1cc(Nc3noc(-c4ccccc4)c3C)ccc1C)c(=O)n2C` [Compound D10] had a pIC50 of 6.47.

Take `Cc1cc2c(cn1)cc(-c1cc(Nc3noc(-c4cnccn4)n3)ccc1C)c(=O)n2C` [Compound A70, 1,7-dimethyl-3-(2-methyl-5-{[5-(pyrazin-2-yl)-1,2,4-oxadiazol-3-yl]amino}phenyl)-1,2-dihydro-1,6-naphthyridin-2-one]: the pIC50 was 6.68.

As for `Cc1cc2c(cn1)cc(-c1cc(Nc3cc(-c4ccc(F)cc4)on3)ccc1C)c(=O)n2C` [Compound D11], the pIC50 is 7.09.
